Each compound was assayed against T1, AGAP002992-PA (Anopheles gambiae, UniProt Q5TU56).
T1 sequence (Q5TU56 whole entry): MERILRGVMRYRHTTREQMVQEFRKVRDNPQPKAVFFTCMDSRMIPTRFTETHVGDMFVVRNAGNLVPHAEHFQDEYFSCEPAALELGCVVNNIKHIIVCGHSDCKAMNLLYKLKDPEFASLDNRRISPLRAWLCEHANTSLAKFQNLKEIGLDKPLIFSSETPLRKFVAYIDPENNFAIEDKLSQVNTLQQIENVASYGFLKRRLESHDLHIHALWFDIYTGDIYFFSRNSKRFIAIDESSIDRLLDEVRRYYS
Description: Inhibition of Anopheles gambiae carbonic anhydrase pre-incubated for 15 mins by stopped-flow CO2 hydration assay

Compound	Ki
O=C1NS(=O)(=O)c2ccccc21 [SACCHARIN]	95.3 nM
Nc1ccc(S(=O)(=O)Nc2ccc(S(N)(=O)=O)cc2)cc1	83.4 nM
NS(=O)(=O)c1ccc(O)cc1	> 100000 nM
NS(=O)(=O)c1ccc(CO)cc1	> 100000 nM
NS(=O)(=O)c1ccc(CCNS(=O)(=O)c2ccc([N+](=O)[O-])cc2CO)cc1	6.1 nM
Nc1ccc(S(N)(=O)=O)cc1Cl	12400 nM
Nc1nnc(S(N)(=O)=O)s1	737 nM
NS(=O)(=O)c1ccc(S(=O)(=O)Nc2cccc3c(Cl)c[nH]c23)cc1	226 nM
NS(=O)(=O)c1cccc(S(N)(=O)=O)c1	843 nM
CCN[C@H]1CN(CCCOC)S(=O)(=O)c2sc(S(N)(=O)=O)cc21 [BRINZOLAMIDE]	31.4 nM
Nc1ccc(S(=O)(=O)Nc2nnc(S(N)(=O)=O)s2)cc1	6.8 nM
Nc1cccc(S(N)(=O)=O)c1	887 nM
NS(=O)(=O)c1ccc(CCO)cc1	> 100000 nM
Nc1nccc(Nc2ccc(S(N)(=O)=O)cc2)n1	10600 nM
NS(=O)(=O)c1nnc(NS(=O)(=O)c2ccccc2)s1 [BENZOLAMIDE]	9.8 nM
Nc1cc(C(F)(F)F)c(S(N)(=O)=O)cc1S(N)(=O)=O [2,4-DISULFAMYLTRIFLUOROMETHYLANILINE]	4360 nM
Nc1ccc(S(=O)(=O)NCc2ccc(S(N)(=O)=O)cc2)cc1	81.9 nM
NS(=O)(=O)c1cc(Cl)cc(Cl)c1O	6480 nM
Nc1ccc(S(N)(=O)=O)cc1Br	855 nM
Nc1cc(Cl)c(S(N)(=O)=O)cc1S(N)(=O)=O	756 nM
CCOc1ccc2nc(S(N)(=O)=O)sc2c1 [ETHOXZOLAMIDE]	185 nM
Cc1ccc(S(N)(=O)=O)cc1 [P-TOLUENESULFONAMIDE]	12400 nM
Cc1ccc(-c2cc(C(F)(F)F)nn2-c2ccc(S(N)(=O)=O)cc2)cc1 [CELECOXIB]	173 nM
Nc1ccc(S(N)(=O)=O)cc1F	902 nM
NCCc1ccc(S(N)(=O)=O)cc1	835 nM
NCc1ccc(S(N)(=O)=O)cc1 [MAFENIDE]	13600 nM
Nc1ccc(S(=O)(=O)NCCc2ccc(S(N)(=O)=O)cc2)cc1	47 nM
Cn1nc(S(N)(=O)=O)sc1=N	1680 nM
Nc1ccc(S(N)(=O)=O)cc1 [SULFANILAMIDE]	862 nM
CC1(C)O[C@@H]2[C@@H](CO[C@@]3(COS(N)(=O)=O)OC(C)(C)O[C@@H]23)O1 [TOPIRAMATE]	> 100000 nM
